Test results reported in the supplement of paper PMC5908809.

Key:
Assay in all cases: relative IC50 (inflection point of fitted viability curve, relative to fitted max inhibition); higher = less sensitive
Settings in all cases: 72 h
DERL-7 (IL-2 2.5 ng/mL) = system: DERL-7 (IL-2 2.5 ng/mL)
Procedure: (§1)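 Drug sensitivity and resistance testing: 5 concentrations over a 10,000-fold range, 72 h at 37 °C, viability by CellTiter-Glo normalised to DMSO and benzethonium chloride controls. IC50 is the inflection point of a logistic fit (min fixed at 0, max fitted), so it is relative to the fitted maximal inhibition. Kept only where fitted max inhibition is at least 50%.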

IMC-1 (IL-2 20 ng/mL) = system: IMC-1 (IL-2 20 ng/mL)
Procedure: as §1

KAI3 (IL-2 2.5 ng/mL) = system: KAI3 (IL-2 2.5 ng/mL)
Procedure: as §1

KHYG-1 (IL-2 2.5 ng/mL) = system: KHYG-1 (IL-2 2.5 ng/mL)
Procedure: as §1

NK-92 (IL-2 2.5 ng/mL) = system: NK-92 (IL-2 2.5 ng/mL)
Procedure: as §1

NK-YS (IL-2 2.5 ng/mL) = system: NK-YS (IL-2 2.5 ng/mL)
Procedure: as §1

NKL (IL-2 2.5 ng/mL) = system: NKL (IL-2 2.5 ng/mL)
Procedure: as §1

SNK-6 (IL-2 2.5 ng/mL) = system: SNK-6 (IL-2 2.5 ng/mL)
Procedure: as §1

YT (IL-2 2.5 ng/mL) = system: YT (IL-2 2.5 ng/mL)
Procedure: as §1

[1] = system: normal primary NK cells, pool 2 (3 donors) (IL-2 2.5 ng/mL)
Procedure: as §1

[2] = system: normal primary NK cells, pool 3 (3 donors) (IL-2 2.5 ng/mL)
Procedure: as §1

Compound	relative IC50 (DERL-7 (IL-2 2.5 ng/mL))	relative IC50 (IMC-1 (IL-2 20 ng/mL))	relative IC50 (KAI3 (IL-2 2.5 ng/mL))	relative IC50 (KHYG-1 (IL-2 2.5 ng/mL))	relative IC50 (NK-92 (IL-2 2.5 ng/mL))	relative IC50 (NK-YS (IL-2 2.5 ng/mL))	relative IC50 (NKL (IL-2 2.5 ng/mL))	relative IC50 (SNK-6 (IL-2 2.5 ng/mL))	relative IC50 (YT (IL-2 2.5 ng/mL))	relative IC50 [1]	relative IC50 [2]
O=C(O)c1ccc(-c2c[nH]c3ncc(-c4ccccc4)cc23)cc1C1CCCC1	2.82 µM	3.04 µM	0.307 µM	1.49 µM	2.33 µM	1.46 µM	1.4 µM	–	–	–	–
NC(=O)Nc1cc(-c2cccc(F)c2)sc1C(=O)N[C@H]1CCCNC1 [AZD7762]	0.115 µM	0.353 µM	0.0288 µM	0.0292 µM	0.131 µM	0.132 µM	0.0432 µM	0.127 µM	0.145 µM	–	–
N#Cc1ccc2[nH]c(O)c(-c3ccc(CN4CCOCC4)cn3)c2c1 [AZD-1080]	3.42 µM	3.18 µM	–	–	> 10 µM	–	–	> 10 µM	–	–	–
N#CC1(c2ccc(NC(=O)c3cccnc3NCc3ccncc3)cc2)CCCC1 [Apatinib]	–	–	–	–	1.71 µM	–	> 10 µM	–	–	> 10 µM	–
CC(C)c1c(C(=O)Nc2ccccc2)c(-c2ccccc2)c(-c2ccc(F)cc2)n1CC[C@@H](O)C[C@@H](O)CC(=O)O [Atorvastatin]	2.18 µM	1.52 µM	2.76 µM	2.38 µM	3.67 µM	0.579 µM	0.332 µM	–	1.63 µM	–	–
CNC(=O)c1ccccc1Sc1ccc2c(/C=C/c3ccccn3)n[nH]c2c1 [Axitinib]	0.323 µM	2.76 µM	0.717 µM	0.916 µM	1.5 µM	1.1 µM	0.734 µM	0.707 µM	1.2 µM	–	–
Cc1cc2c(F)c(Oc3ncnn4cc(OC[C@@H](C)O)c(C)c34)ccc2[nH]1 [Brivanib]	–	> 1 µM	–	> 1 µM	> 1 µM	–	> 1 µM	–	> 1 µM	> 1 µM	> 1 µM
CC(C)(C)c1nc(-c2cccc(NS(=O)(=O)c3c(F)cccc3F)c2F)c(-c2ccnc(N)n2)s1 [Dabrafenib]	–	–	–	0.0721 µM	> 2.5 µM	–	> 2.5 µM	–	–	> 2.5 µM	> 2.5 µM
Cn1c(=O)n(-c2ccc(C(C)(C)C#N)cc2)c2c3cc(-c4cnc5ccccc5c4)ccc3ncc21 [Dactolisib]	0.00968 µM	0.198 µM	0.0173 µM	0.048 µM	0.015 µM	0.0261 µM	0.0104 µM	0.0405 µM	0.0409 µM	0.0318 µM	–
CO[C@@H](C(=O)N1Cc2[nH]nc(NC(=O)c3ccc(N4CCN(C)CC4)cc3)c2C1)c1ccccc1 [Danusertib]	0.175 µM	0.312 µM	0.46 µM	0.493 µM	0.337 µM	0.204 µM	1.38 µM	0.413 µM	–	–	–
